# Laboratory results published in US20250134848A1, “METHOD OF ADMINISTRATION OF […] THE INDUCTION OF TUMOR ASSOCIATED ANTIGENS” (BryoLogyx Inc., priority 2022, published 2025).
# Experiments:
# [1] = system: tumor associated antigen expression; conditions: animal experiments; cited from earlier work
# antigen expression = conditions: FIGS. 3A and 3B; Ramakrishna et al. 2019; cited from earlier work
# CD22 [2] = experiment: CD22 expression in human PBMC, antibody binding capacity by flow cytometry; format: cell-based; conditions: FIG. 2
# Method: (§1) The ability of bryostatin-1 to promote antigen expression was evaluated in vitro. Human peripheral blood mononuclear cells (PBMC) were cultured according to previously published methods (Ramakrishna et al., 2019). Briefly, cells were washed and then treated with either bryostatin-1 (1 nM) or DMSO (vehicle control) for different times as indicated, ranging from 45 min to 24 hrs. Antibody binding capacity (ABC) was measured by flow cytometry (NCI flow lab); and plotted (FIGS. 1 and 2), either directly or as fold change over DMSO/vehicle control.
# CD19 = CD19 expression in human PBMC, antibody binding capacity by flow cytometry; format: cell-based; conditions: FIG. 1
# Method: as §1
# CD22 [3] = conditions: B-cell tumors such as ALL and CLL; cited from earlier work
# CD19 and CD22 = experiment: Changes in expression of CD19 and CD22 in tumor cell lines and human cells after varying exposure times; format: cell-based
# Method: We have shown that short exposure to bryostatin-1 in vitro is sufficient to elevate tumor-associated antigen expression. In experiments performed on numerous tumor cell lines and human cells, bryostatin-1 was administered for varying periods of time, ranging from 45 min to 24 hrs, and changes in the expression of CD19 and CD22 were measured. […] This elevation took time to become evident and was maximal at 72 h.
# [4] = 1 nM, 45 min vs 3 hrs or 24 hrs
# [5] = bryostatin-1 1 nM for 45 min, 3 hrs or 24 hrs
smiles,measurement,setting,value
CCC/C=C/C=C/C(=O)O[C@H]1/C(=C/C(=O)OC)C[C@H]2C[C@H]([C@@H](C)O)OC(=O)C[C@H](O)C[C@@H]3C[C@H](OC(C)=O)C(C)(C)[C@](O)(C[C@@H]4C/C(=C/C(=O)OC)C[C@H](/C=C/C(C)(C)[C@]1(O)O2)O4)O3 [bryostatin-1],tumor associated antigen expression after a single intraperitoneal administration,[1],able to induce an elevation of tumor associated antigen expression
same,time for which the increase in antigen expression remains elevated,antigen expression,7 days
same,elevation of CD22 after 45 min incubation compared with longer incubations,CD22 [2]; [4],same elevation in antigens as longer incubations
same,expression of CD22,CD22 [2]; [5],increases in expression of CD22
same,elevation of CD19 after 45 min incubation compared with longer incubations,CD19; [4],same elevation in antigens as longer incubations
same,expression of CD19,CD19; [5],increases in expression of CD19
same,cell-surface expression of CD22,CD22 [3],increase cell-surface expression of CD22
same,time at which elevation of antigen expression was maximal,CD19 and CD22; exposure 45 min to 24 hrs,72 h
same,increase in antigen expression after short exposure (45 min) compared with 3 h or 24 h exposure,"CD19 and CD22; tumor cell lines and human cells, in vitro",same level of increase in antigen expression as 3 h or 24 h exposure
